EP3800188A1, “SUBSTITUTED PYRAZOLOPYRIMIDINES AS IRAK4 INHIBITORS” (Bayer AG, priority 2019, dated 2021)

Assays:
[1] = Metabolic stability in dog liver microsomes; assay type: in vitro ADME; conditions: 1 µM compound; for CLblood, dog microsomes: hepatic in vivo blood clearance calculated with well stirred liver model, '(stable)' given beside < 0.01; for Fmax, dog microsomes: maximal oral bioavailability calculated with well stirred liver model, 0.5 mg/mL protein, '(stable)' given beside 100
Description: From the half-life the intrinsic clearances were calculated.

[2] = biological target: T1, human IRAK4 (Homo sapiens, UniProt Q9NWZ3); assay: Human IRAK4 kinase activity inhibition assay (IRAK4 TR-FRET assay); assay type: biochemical; conditions: 1 mM ATP, GST-human IRAK4, average or median values
T1 construct: GST (N); made in house; host or cells: baculovirus-infected Hi5 (BTI-TN-5B1-4) insect cells
T1 sequence (Q9NWZ3 1-460): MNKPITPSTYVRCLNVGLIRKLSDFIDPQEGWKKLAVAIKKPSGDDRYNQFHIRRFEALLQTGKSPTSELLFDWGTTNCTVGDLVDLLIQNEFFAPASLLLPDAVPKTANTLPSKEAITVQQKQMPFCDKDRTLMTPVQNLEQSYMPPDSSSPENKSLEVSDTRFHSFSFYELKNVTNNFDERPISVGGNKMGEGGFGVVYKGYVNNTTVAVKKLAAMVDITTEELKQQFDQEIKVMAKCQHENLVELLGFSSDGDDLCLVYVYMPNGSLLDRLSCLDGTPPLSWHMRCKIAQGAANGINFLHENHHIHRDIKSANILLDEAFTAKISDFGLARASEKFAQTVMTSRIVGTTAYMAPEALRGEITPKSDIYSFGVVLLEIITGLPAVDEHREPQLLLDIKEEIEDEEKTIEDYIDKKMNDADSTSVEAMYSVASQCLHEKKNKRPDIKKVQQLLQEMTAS
Method in brief: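 Signal was the 665/620 nm emission ratio from a europium anti-mouse-IgG, anti-phosphoserine antibody and streptavidin-XL665 complex formed over 1 h at 22°C. It was scaled between no-enzyme (100%) and no-compound (0%) wells. Beforehand, compounds (20 µM down to 0.073 nM, 11 points) sat 15 min with roughly 0.2 nM insect-cell-expressed GST-human IRAK4 before phosphorylation of a biotinylated peptide substrate.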

[3] = Metabolic stability in human liver microsomes; conditions: 1 µM compound; for CLblood, human microsomes: hepatic in vivo blood clearance calculated with well stirred liver model, '(stable)' given beside < 0.01; for Fmax, human microsomes: maximal oral bioavailability calculated with well stirred liver model, 0.5 mg/mL protein, '(stable)' given beside 100
Description: The in vitro metabolic stability of test compounds was determined by incubating them at 1 µM in a suspension liver microsomes in 100 mM phosphate buffer, pH7.4 (NaH2PO4 x H2O + Na2HPO4 x 2H2O) and at a protein concentration of 0.5 mg/mL at 37° C. The microsomes were activated by adding a co-factor mix containing 8 mM Glukose-6-Phosphat, 4 mM MgCl2, 0.5 mM NADP and 1 IU/mL G-6-P-Dehydrogenase in phosphate buffer, pH 7.4. The metabolic assay was started shortly afterwards by adding the test compound to the incubation at a final volume of 1 mL. Organic solvent in the incubations was limited to ≤0.01 % dimethylsulfoxide (DMSO) and ≤1% acetonitril. During incubation, the microsomal suspensions were continuously shaken at 580 rpm, and aliquots were taken at 2, 8, 16, 30, 45 and 60 min, to which equal volumes of cold methanol were immediately added. Samples were frozen at -20° C over night, subsequently centrifuged for 15 min at 3000 rpm and the supernatant was analyzed with an Agilent 1200 HPLC-system with LCMS/MS detection.
The half-life of a test compound was determined from the concentration-time plot. From the half-life the intrinsic clearances were calculated. Together with the additional parameters liver blood flow, specific liver weight and microsomal protein content the hepatic in vivo blood clearance (CL) and the maximal oral bioavailability (Fmax) were calculated using the "well stirred" liver model. The following parameter values were used: Liver blood flow - 1.32 L/h/kg (human), 2.1 L/h/kg (dog); specific liver weight - 21 g/kg (human), 39 g/kg (dog); microsomal protein content - 40 mg/g.

SMILES	CLblood, dog microsomes [1]	Fmax, dog microsomes [1]	IC50 [2] [nM]	CLblood, human microsomes [3]	Fmax, human microsomes [3]
O[C@H]1C[C@@H](Nc2nc(N3CC(N4CCOCC4)C3)c3cnn(-c4cccc(C(F)(F)F)c4)c3n2)C1 [Example I-72, cis-3-({4-[3-(morpholin-4-yl)azetidin-1-yl]-1-[3-(trifluoromethyl)phenyl]-1H-pyrazolo[3,4-d]pyrimidin-6-yl}amino)cyclobutanol]	0.10 L/h/kg	95%	7.31	0.28 L/h/kg	79%
CN1CC[C@H](Nc2nc(N3CCC(C(C)(C)O)CC3)c3cnn(-c4cccc(C(F)F)c4)c3n2)C1 [II-4, 2-[1-(1-[3-(difluoromethyl)phenyl]-6-{[(3S)-1-methylpyrrolidin-3-yl]amino}-1H-pyrazolo-[3,4-d]pyrimidin-4-yl)piperidin-4-yl]propan-2-ol]	< 0.01 (stable) L/h/kg	100 (stable) %	3.33	< 0.01 (stable) L/h/kg	100 (stable) %
CC(C)(O)C1CCN(c2nc(NC3CCS(=O)(=O)CC3)nc3c2cnn3-c2cccc(C(F)F)c2)CC1 [II-5, 2-(1-{1-[3-(difluoromethyl)phenyl]-6-[(1,1-dioxidotetrahydro-2H-thiopyran-4-yl)amino]-1H-pyrazolo[3,4-d]pyrimidin-4-yl}piperidin-4-yl)propan-2-ol]	0.24 L/h/kg	89%	3.45	0.10 L/h/kg	93%
CC(C)(O)CC1CN(c2nc(NC3CN(S(C)(=O)=O)C3)nc3c2cnn3-c2cccc(C(F)F)c2)C1 [II-14, 1-[1-(1-[3-(difluoromethyl)phenyl]-6-{[1-(methylsulfonyl)azetidin-3-yl]amino}-1H-pyrazolo[3,4-d]pyrimidin-4-yl)azetidin-3-yl]-2-methylpropan-2-ol]			7.01	< 0.01 (stable) L/h/kg	100 (stable) %
CS(=O)(=O)[C@H]1C[C@H](Nc2nc(N3C[C@H](O)[C@@H](F)C3)c3cnn(-c4cccc(C(F)F)c4)c3n2)C1 [II-16-2, (3S,4S)-1-(1-[3-(difluoromethyl)phenyl]-6-{[trans-3-(methanesulfonyl)cyclobutyl]amino}-1H-pyrazolo[3,4-d]pyrimidin-4-yl)-4-fluoropyrrolidin-3-ol]			2.82	< 0.01 (stable) L/h/kg	100 (stable) %
CS(=O)(=O)[C@H]1C[C@H](Nc2nc(N3C[C@@H](O)[C@H](F)C3)c3cnn(-c4cccc(C(F)F)c4)c3n2)C1 [II-16-3, (3R,4R)-1-(1-[3-(difluoromethyl)phenyl]-6-{[trans-3-(methanesulfonyl)cyclobutyl]-amino)-1H-pyrazolo[3,4-d]pyrimidin-4-yl)-4-fluoropyrrolidin-3-ol]			1.62	0.08 L/h/kg	94%
CC(C)(O)C1CCN(c2nc(N[C@H]3C[C@@]4(CCN4)C3)nc3c2cnn3-c2cccc(C(F)F)c2)CC1 [II-18, 2-(1-{6-[(4r,6s)-1-azaspiro[3.3]heptan-6-ylamino]-1-[3-(difluoromethyl)phenyl]-1H-pyrazolo[3,4-d]pyrimidin-4-yl}piperidin-4-yl)propan-2-ol]			1.4	0.10 L/h/kg	93%
CC(C)(O)CC1CN(c2nc(N[C@H]3C[C@H](S(C)(=O)=O)C3)nc3c2cnn3-c2cccc(C(F)F)c2)C1 [II-19, 1-[1-(1-[3-(difluoromethyl)phenyl]-6-{[trans-3-(methylsulfonyl)cyclobutyl]amino}-1H-pyrazolo[3,4-d]pyrimidin-4-yl)azetidin-3-yl]-2-methylpropan-2-ol]			1.63	0.23 L/h/kg	82%
CS(=O)(=O)N1CC(Nc2nc(N3CCC(C4(N)CC4)CC3)c3cnn(-c4cccc(C(F)F)c4)c3n2)C1 [II-20, 4-[4-(1-aminocyclopropyl)piperidin-1-yl]-1-[3-(difluoromethyl)phenyl]-N-[1-(methylsulfonyl)azetidin-3-yl]-1H-pyrazolo[3,4-d]pyrimidin-6-amine]			1.39	0.04 L/h/kg	97%
CC1(N2CCOCC2)CN(c2nc(N[C@H]3C[C@H](S(C)(=O)=O)C3)nc3c2cnn3-c2cccc(C(F)F)c2)C1 [II-21, 1-[3-(difluoromethyl)phenyl]-4-[3-methyl-3-(morpholin-4-yl)azetidin-1-yl]-N-[trans-3-(methylsulfonyl)cyclobutyl]-1H-pyrazolo[3,4-d]pyrimidin-6-amine]			1.8	0.07 L/h/kg	95%
O[C@H]1C[C@@H](Nc2nc(N3CC(N4CCOCC4)C3)c3cnn(-c4cccc(C(F)F)c4)c3n2)C1 [II-24, cis-3-({1-[3-(difluoromethyl)phenyl]-4-[3-(morpholin-4-yl)azetidin-1-yl]-1H-pyrazolo[3,4-d]pyrimidin-6-yl}amino)cyclobutanol]			5.65	< 0.01 (stable) L/h/kg	100 (stable) %
O=C1CN(C2CN(c3nc(N[C@H]4C[C@H](O)C4)nc4c3cnn4-c3cccc(C(F)F)c3)C2)CCN1 [II-27, 4-(1-{1-[3-(difluoromethyl)phenyl]-6-[(trans-3-hydroxycyclobutyl)amino]-1H-pyrazolo[3,4-d]pyrimidin-4-yl}azetidin-3-yl)piperazin-2-one]			4.75	< 0.01 (stable) L/h/kg	100 (stable) %
CCS(=O)(=O)N1CC(Nc2nc(N3CCC(C(C)(C)O)CC3)c3cnn(-c4cccc(C(F)F)c4)c3n2)C1 [II-31, 2-[1-(1-[3-(difluoromethyl)phenyl]-6-{[1-(ethylsulfonyl)azetidin-3-yl]amino}-1H-pyrazolo[3,4-d]pyrimidin-4-yl)piperidin-4-yl]propan-2-ol]			9.22	0.29 L/h/kg	78%
CS(=O)(=O)[C@H]1C[C@H](Nc2nc(N3CC[C@@H](O)C3)c3cnn(-c4cccc(C(F)F)c4)c3n2)C1 [II-34, (3R)-1-(1-[3-(difluoromethyl)phenyl]-6-{[(1r,3R)-3-(methylsulfonyl)cyclobutyl]amino}-1H-pyrazolo[3,4-d]pyrimidin-4-yl)pyrrolidin-3-ol]			3.49	0.07 L/h/kg	95%
C[C@@]1(O)CCN(c2nc(N[C@H]3C[C@H](S(C)(=O)=O)C3)nc3c2cnn3-c2cccc(C(F)F)c2)C1 [II-35, (3R)-1-(1-[3-(difluoromethyl)phenyl]-6-{[(1r,3R)-3-(methylsulfonyl)cyclobutyl]amino}-1H-pyrazolo[3,4-d]pyrimidin-4-yl)-3-methylpyrrolidin-3-ol]			6.8	0.10 L/h/kg	93%
CS(=O)(=O)N1CC(Nc2nc(N3CCC(C4(N)CC4)CC3)c3cnn(-c4cccc(OC(F)F)c4)c3n2)C1 [IV-3, 4-[4-(1-aminocyclopropyl)piperidin-1-yl]-1-[3-(difluoromethoxy)phenyl]-N-[1-(methylsulfonyl)azetidin-3-yl]-1H-pyrazolo[3,4-d]pyrimidin-6-amine]			6.61	0.14 L/h/kg	89%
CC(C)(O)CC1CN(c2nc(N[C@H]3C[C@H](S(C)(=O)=O)C3)nc3c2cnn3-c2cccc(OC(F)F)c2)C1 [IV-4, 1-[1-(1-[3-(difluoromethoxy)phenyl]-6-{[trans-3-(methylsulfonyl)cyclobutyl]amino}-1H-pyrazolo[3,4-d]pyrimidin-4-yl)azetidin-3-yl]-2-methylpropan-2-ol]			4.78	0.55 L/h/kg	58%
